Patent US20110251143A1, “STABLE ELSAMITRUCIN SALT FORMULATIONS” (Spectrum Pharmaceuticals, Inc., priority 2007, published 2011)

What was measured:
[1] = test system: HCT 116 human colon carcinoma; assay: MTT cell growth inhibition, HCT 116; type: cell-based; settings: HCT 116, MTT, 5-10 days
Method: (§1) The following experiment confirms that the elsamitrucin salts made in accordance with the teachings of the present disclosure retain their in vitro anti-neoplastic activity when compared to elsamitrucin base. Elsamitrucin and elsamitrucin tosylate were tested in vitro using: B16F10 (murine […]), HCT 116 (human colon), HT29 (human colon) and SK-MES-1 (human non-small cell lung carcinoma). Cell growth inhibition was evaluated in 96-well micro-culture plates with a semi-automated MTT (3-(4,5-dimethylthiazol-2-yl)-2,5-diphenyltetrazolium bromide) assay. […]
(§2) Cell culture plates seeded with test cells and various concentrations of elsamitrucin solutions were placed in a humidified incubator at 37° C., with CO2 and 95% air for 5-10 days. […] Absorbance was monitored at a wavelength of 595 nm, and at a reference wavelength of 650 nm, using a TECAN® GENios mocroplate reader. In all experiments, absorbance data was acquired for each agent at two overlapping concentration ranges. […]
(§3) The results of each test were stored and imported into PRISM® 3.03 for graphical analysis and determination of IC50 values. All results were graphed as a percentage of controlled absorbance versus the drug concentration. […]

[2] = solution stability in benzoate buffer (HPLC, MS); type: physicochemical; settings: benzoate buffer (pH 4), 50° C., ten days, samples at 3, 5, 10 days
Method: (§4) Elsamitrucin salts made in accordance with the teachings of the present disclosure were tested for stability. Two samples of the isolated p-TSA salt (40 mg each) were placed in a vacuum oven at 75° C. for nine hours. After this exposure, sample #1 was taken out, the temperature was increased to 98° C. and the second sample was dried overnight. […] The weight loss by TGA was approximately 2.5% for both samples. Karl Fischer analysis indicated the two lots still had water present: sample #1 had 4.0% water content and #2 had 4.6%. The p-TSA salt (16 mg) of elsamitrucin was dissolved in 1.6 mL of benzoate buffer (pH 4) and stirred at 50° C. for ten days. Samples for HPLC and MS were taken in 3, 5, and 10 days.

[3] = test system: SK-MES-1 human non-small cell lung carcinoma; assay: MTT cell growth inhibition, SK-MES-1; type: cell-based; settings: SK-MES-1, MTT, 5-10 days
Method: as §1, §2, §3

[4] = solid state stability, drying at elevated temperatures (NMR); type: physicochemical; settings: vacuum oven 75° C. nine hours; 98° C. overnight; NMR 1:1 salt ratio
Method: as §4

[5] = solubility of the p-TSA salt checked by HPLC; type: physicochemical; settings: for solubility at pH 4 / Concentration (mg/mL) / solubility in water / Concentration: HPLC; for solubility in water / Concentration: slurry stirred at room temperature for six hours
Text: The solubility of the p-TSA salt in water was checked by HPLC after stirring the slurry at room temperature for six hours.

[6] = test system: HT29 human colon carcinoma; assay: MTT cell growth inhibition, HT29; type: cell-based; settings: 5-10 days
Method: as §1, §2, §3

[7] = test system: B16F10 murine melanoma cells; assay: MTT cell growth inhibition, B16F10; type: cell-based; settings: 5-10 days
Method: as §1, §2, §3

elsamitrucin tosylate [Elsamitrucin p-TSA Salt]
IC50 [1]: 0.079 µM
decomposition in solution [2]: No evidence of the decomposition product
IC50 [3]: 0.045 µM
decomposition in the solid state during drying [4]: no decomposition
Vial Concentration ([5]; pH 4 (benzoate buffer)): 0.01789 M
solubility at pH 4 / Concentration (mg/mL) ([5]; pH 4 (benzoate buffer)): 14.7 mg/mL
solubility at pH 4 / Concentration (mg/mL) ([5]; pH 4 (benzoate buffer), listed as OVL-A-143): 14.78 mg/mL
Vial Concentration ([5]; water): 0.01891 M
solubility in water / Concentration ([5]; water): 15.6 mg/mL
solubility in water / Concentration ([5]; water, listed as OVL-A-137): 15.61 mg/mL
IC50 [6]: 0.105 µM
IC50 [7]: 0.028 µM
